Results as given in EPA's ToxValDB 9.5.

Assays:
Rattus norvegicus = settings: short-term, duration: 28 days, oral, gavage, M, Sprague-Dawley
Mus musculus = settings: oral
[1] = developmental, duration: 17 days, F, Developmental: Decrease in number of successful birthsbirths

O=S(=O)(O)C(F)(F)C(F)(F)C(F)(F)C(F)(F)C(F)(F)C(F)(F)C(F)(F)C(F)(F)F [Perfluorooctanesulfonic acid]
LOEL (Rattus norvegicus; Hematology_Leukocytes): 5 mg/kg-day
LOEL (Rattus norvegicus; Hematology_Reticulocytes): 2.5 mg/kg-day
LOEL (Rattus norvegicus; Hematology_S. neutrophils): 5 mg/kg-day
LOEL (Rattus norvegicus; Nonneoplastic effects_Bone marrow - Hypocellularity): 1.25 mg/kg-day
NOEL (Rattus norvegicus; Nonneoplastic effects_Kidney - Papilla, necrosis): 5 mg/kg-day
NOEL (Rattus norvegicus; Nonneoplastic effects_Liver - Hepatocyte, cytoplasmic alteration): 5 mg/kg-day
LOEL (Rattus norvegicus; Nonneoplastic effects_Liver - Hepatocyte, hypertrophy): 1.25 mg/kg-day
LOEL (Rattus norvegicus; Nonneoplastic effects_Liver - Hepatocyte, vacuolization cytoplasmic): 2.5 mg/kg-day
NOEL (Rattus norvegicus; Nonneoplastic effects_Liver - Necrosis): 5 mg/kg-day
NOEL (Rattus norvegicus; Nonneoplastic effects_Nose - Olfactory epithelium, degeneration): 5 mg/kg-day
NOEL (Rattus norvegicus; Nonneoplastic effects_Nose - Olfactory epithelium, hyperplasia): 5 mg/kg-day
NOEL (Rattus norvegicus; Nonneoplastic effects_Nose - Olfactory epithelium, inflammation, suppurative): 5 mg/kg-day
NOEL (Rattus norvegicus; Nonneoplastic effects_Nose - Olfactory epithelium, necrosis): 5 mg/kg-day
LOEL (Rattus norvegicus; Nonneoplastic effects_Spleen - Extramedullary hematopoiesis, decreased): 1.25 mg/kg-day
NOEL (Rattus norvegicus; Nonneoplastic effects_Stomach, forestomach - Epithelium, hyperplasia): 5 mg/kg-day
NOEL (Rattus norvegicus; Nonneoplastic effects_Thymus - Atrophy): 5 mg/kg-day
LOEL (Rattus norvegicus; Organ weights_Heart - Absolute): 5 mg/kg-day
NOEL (Rattus norvegicus; Organ weights_Heart - Relative): 5 mg/kg-day
LOEL (Rattus norvegicus; Organ weights_Liver - Absolute): 0.312 mg/kg-day
LOEL (Rattus norvegicus; Organ weights_Liver - Relative): 0.312 mg/kg-day
NOEL (Rattus norvegicus; Organ weights_Lung - Absolute): 5 mg/kg-day
NOEL (Rattus norvegicus; Organ weights_Lung - Relative): 5 mg/kg-day
LOEL (Rattus norvegicus; Organ weights_R. adrenal gland - Absolute): 1.25 mg/kg-day
NOEL (Rattus norvegicus; Organ weights_R. adrenal gland - Relative): 5 mg/kg-day
NOEL (Rattus norvegicus; Organ weights_R. kidney - Absolute): 5 mg/kg-day
NOEL (Rattus norvegicus; Organ weights_R. kidney - Relative): 5 mg/kg-day
LOEL (Rattus norvegicus; Organ weights_Spleen - Absolute): 1.25 mg/kg-day
NOEL (Rattus norvegicus; Organ weights_Spleen - Relative): 5 mg/kg-day
LOEL (Rattus norvegicus; Organ weights_Thymus - Absolute): 5 mg/kg-day
LOEL (Rattus norvegicus; Organ weights_Thymus - Relative): 5 mg/kg-day
NOEL (Rattus norvegicus; Reproductive toxicity_Altered sperm parameters): 5 mg/kg-day
NOEL (Rattus norvegicus; Survival rates): 5 mg/kg-day
LOAEL (Mus musculus; acute, duration: 1 days, M, C57BL/6, Death: LD50): 579 mg/kg-day
LOAEL (Mus musculus; developmental, duration: 1 days, M, NMRI, Developmental: Altered spontaneous behavior (?60, 87.5, or 60% changes in total activity, rearing, and locomotion)): 11.3 mg/kg-day
LOAEL (Mus musculus; developmental, duration: 17 days, CD1, Developmental: Significant increase in cholesterol levels in fetal livers): 3 mg/kg-day
LOAEL (Mus musculus; [1]): 3 mg/kg-day
NOAEL (Mus musculus; [1]): 0.1 mg/kg-day
LOAEL (Mus musculus; developmental, duration: 19 days, F, CD1, Developmental: In PND 63 offspring fed a high fat diet, increased serum glucose levels at ?0.3 mg/kg/day in females (~40%) and 3 mg/kg/day …): 0.3 mg/kg-day
NOAEL (Mus musculus; developmental, duration: 19 days, F, CD1, ~24% increase in relative liver weight in dams at 3 mg/kg/day + Developmental: Increase in relative liver weight at 3 mg/kg/day in male and …): 3 mg/kg-day
LOAEL (Mus musculus; reproduction developmental, duration: 6 days, F, CD1, Body Weight: 21% reduction in maternal body weight gain on GDs 14-17): 8 mg/kg-day
NOAEL (Mus musculus; reproduction developmental, duration: 17 days, CD1, Hepatic: No alteration in maternal hepatic lipid levels): 3 mg/kg-day
